Experimental data reported in patent US20240409585A1, “MACROCYCLIC IMMUNOMODULATORS” (priority 2021, published 2024).
Numbered stars: 1 amine (or outer) side, 2 acyl side, 3 side chain; on linkers, the order of the positions; unused ones are H or OH. Bridge positions count the residues as written; N and C are the ends. Square brackets hold non-standard residues; d marks the D form. Peptide text beside a SMILES is read from it. * marks the point of attachment. Phe(3-CF3) = N[C@@H](Cc1cccc(C(F)(F)F)c1)C(=O)O; Ala(morpholin-4-yl) = N[C@@H](CN1CCOCC1)C(=O)O; Phe(4-COOH) = N[C@@H](Cc1ccc(C(=O)O)cc1)C(=O)O; Bip = N[C@@H](Cc1ccc(-c2ccccc2)cc1)C(=O)O; Phe(3-Me) = Cc1cccc(C[C@H](N)C(=O)O)c1; Glutaryl = O=C(CCCC(=O)[*:2])[*:1]; Val(3-OH) = CC(C)(O)[C@H](N)C(=O)O; hArg = N=C(N)NCCCC[C@H](N)C(=O)O; hPhe = N[C@@H](CCc1ccccc1)C(=O)O; Cha = N[C@@H](CC1CCCCC1)C(=O)O; Suc = O=C(CCC(=O)[*:2])[*:1]; Carboxymethyl = O=C(O)C*; NMeA = CN[C@@H](C)C(=O)O; Orn = NCCC[C@H](N)C(=O)O; Dab = NCC[C@H](N)C(=O)O; Dap = NC[C@H](N)C(=O)O; X9 = O=C(CCF)*

molecular target: T1, Alexa fluor-647 labeled human PD-L1-Ig binding to Jurkat cell line over-expressing human PD-1 (Homo sapiens, UniProt Q15116); assay: Jurkat-PD-1 Cell Binding High-Content Screening Assay (CBA): Method 3 (Alexa fluor-647 labeled PD-L1-Ig); conditions: Jurkat-PD-1 cells, Alexa fluor-647 labeled PD-L1-Ig 177 nM; head μM; read-out: CBA Method 3 μM
T1 construct: expressed in transfected cells; host or cells: Jurkat
T1 sequence (Q15116 25-288): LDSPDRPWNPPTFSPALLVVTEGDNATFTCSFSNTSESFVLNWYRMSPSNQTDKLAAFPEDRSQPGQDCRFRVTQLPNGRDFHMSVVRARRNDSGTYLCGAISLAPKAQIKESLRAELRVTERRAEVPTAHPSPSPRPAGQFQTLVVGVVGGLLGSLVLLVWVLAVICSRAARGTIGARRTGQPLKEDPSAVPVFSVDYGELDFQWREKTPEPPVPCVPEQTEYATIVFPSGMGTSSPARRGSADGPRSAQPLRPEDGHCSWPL
Summary of the method: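 Readout by high-content imaging of PFA-fixed, Hoechst-stained cells after 1 h with 177 nM (final) Alexa fluor-647 PD-L1-Ig. Compound was added first to hPD-1 Jurkat cells in RPMI plus 10% FCS for 2 h at 37 °C.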

Point of comparison: Cc1cccc(C[C@@H]2NC(=O)[C@H](CC(=O)O)NC(=O)[C@H](Cc3ccc(OCC(=O)O)cc3)NC(=O)[C@H](CCCCNC(=N)N)NC(=O)CSC[C@@H](C(=O)N[C@@H](CCN)C(N)=O)NC(=O)[C@H](CO)NC(=O)[C@H](C(C)(C)O)NC(=O)[C@H](CC3CCCCC3)NC(=O)[C@H](CCN)NC(=O)[C@@H](CC(C)C)NC(=O)[C@H](C)N(C)C(=O)[C@H](CCC(N)=O)NC(=O)[C@H](Cc3ccc(-c4ccccc4)cc3)NC(=O)[C@H](CCc3ccccc3)NC2=O)c1 [Example 5282] ({CH2CO}-[hArg]Y(Carboxymethyl)D[Phe(3-Me)][hPhe][Bip]Q[NMeA][dL][Dab][Cha][Val(3-OH)]SC[Dab]-NH2; thioether N-14), IC50 0.17 µM. Against it:
- CC(C)C[C@H]1NC(=O)[C@H](C)N(C)C(=O)[C@H](Cc2ccc(C(=O)O)cc2)NC(=O)[C@H](Cc2ccc(-c3ccccc3)cc2)NC(=O)[C@H](Cc2ccc(C(=O)O)cc2)NC(=O)[C@H](Cc2cccc(C(F)(F)F)c2)NC(=O)[C@H](CC(=O)O)NC(=O)[C@H](Cc2ccc(C(=O)O)cc2)NC(=O)[C@H](CN2CCOCC2)NC(=O)CSC[C@@H](C(=O)N[C@@H](CCN)C(N)=O)NC(=O)[C@H](CNC(=O)CCF)NC(=O)[C@H](C(C)C)NC(=O)[C@H](CC2CCCCC2)NC(=O)[C@H](CCN)NC1=O [Example 5233] ({CH2CO}-[Ala(morpholin-4-yl)][Phe(4-COOH)]D[Phe(3-CF3)][Phe(4-COOH)][Bip][Phe(4-COOH)][NMeA][dL][Dab][Cha]V[Dap](X9)C[Dab]-NH2; thioether N-14) — 8.5-fold lower, 0.02 µM
- CC(C)C[C@H]1NC(=O)[C@H](C)N(C)C(=O)[C@H](CCC(N)=O)NC(=O)[C@H](Cc2ccc(-c3ccccc3)cc2)NC(=O)[C@H](CCc2ccccc2)NC(=O)[C@H](Cc2cccc(C(F)(F)F)c2)NC(=O)[C@H](CC(=O)O)NC(=O)[C@H](Cc2ccc(OCC(=O)O)cc2)NC(=O)[C@H](CC2CCCCC2)NC(=O)CSC[C@@H](C(=O)N[C@@H](CCN)C(N)=O)NC(=O)[C@H](CCC(=O)O)NC(=O)[C@H](C(C)C)NC(=O)[C@H](CC2CCCCC2)NC(=O)[C@H](CCN)NC1=O [Example 5213] ({CH2CO}-[Cha]Y(Carboxymethyl)D[Phe(3-CF3)][hPhe][Bip]Q[NMeA][dL][Dab][Cha]VEC[Dab]-NH2; thioether N-14) — 1.9-fold higher, 0.33 µM

same assay, conditions: Jurkat-PD-1 cells, Alexa fluor-647 labeled PD-L1-Ig 177 nM; nM; read-out: CBA Method 3

Point of comparison: CC(C)C[C@H]1NC(=O)[C@H](C)N(C)C(=O)[C@H](Cc2ccc(C(=O)O)cc2)NC(=O)[C@H](Cc2ccc(-c3ccccc3)cc2)NC(=O)[C@H](Cc2ccc(C(=O)O)cc2)NC(=O)[C@H](Cc2cccc(C(F)(F)F)c2)NC(=O)[C@H](CC(=O)O)NC(=O)[C@H](Cc2ccc(C(=O)O)cc2)NC(=O)[C@H](CC2CCCCC2)NC(=O)CSC[C@@H](C(=O)N[C@@H](CCN)C(N)=O)NC(=O)[C@H](CNC(=O)CCC(=O)O)NC(=O)[C@H](C(C)C)NC(=O)[C@H](CC2CCCCC2)NC(=O)[C@H](CCN)NC1=O [Example 5228] ({CH2CO}-[Cha][Phe(4-COOH)]D[Phe(3-CF3)][Phe(4-COOH)][Bip][Phe(4-COOH)][NMeA][dL][Dab][Cha]V[Dap](Suc)C[Dab]-NH2; thioether N-14), IC50 0.0008 µM. Against it:
- CC(C)C[C@H]1NC(=O)[C@H](C)N(C)C(=O)[C@H](Cc2ccc(C(=O)O)cc2)NC(=O)[C@H](Cc2ccc(-c3ccccc3)cc2)NC(=O)[C@H](CCc2ccccc2)NC(=O)[C@H](Cc2cccc(C(F)(F)F)c2)NC(=O)[C@H](CC(=O)O)NC(=O)[C@H](Cc2ccc(C(=O)O)cc2)NC(=O)[C@H](CN2CCOCC2)NC(=O)CSC[C@@H](C(=O)N[C@@H](CCN)C(N)=O)NC(=O)[C@H](CCC(N)=O)NC(=O)[C@H](C(C)C)NC(=O)[C@H](CC2CCCCC2)NC(=O)[C@H](CCN)NC1=O [Example 5204] ({CH2CO}-[Ala(morpholin-4-yl)][Phe(4-COOH)]D[Phe(3-CF3)][hPhe][Bip][Phe(4-COOH)][NMeA][dL][Dab][Cha]VQC[Dab]-NH2; thioether N-14) — 8.1-fold higher, 0.0065 µM
- CC(C)C[C@H]1NC(=O)[C@H](C)N(C)C(=O)[C@H](Cc2ccc(C(=O)O)cc2)NC(=O)[C@H](Cc2ccc(-c3ccccc3)cc2)NC(=O)[C@H](Cc2ccc(C(=O)O)cc2)NC(=O)[C@H](Cc2cccc(C(F)(F)F)c2)NC(=O)[C@H](CC(=O)O)NC(=O)[C@H](Cc2ccc(C(=O)O)cc2)NC(=O)[C@H](CN2CCOCC2)NC(=O)CSC[C@@H](C(=O)N[C@@H](CCN)C(N)=O)NC(=O)[C@H](CNC(=O)CCCC(=O)O)NC(=O)[C@H](C(C)C)NC(=O)[C@H](CC2CCCCC2)NC(=O)[C@H](CCN)NC1=O [Example 5234] ({CH2CO}-[Ala(morpholin-4-yl)][Phe(4-COOH)]D[Phe(3-CF3)][Phe(4-COOH)][Bip][Phe(4-COOH)][NMeA][dL][Dab][Cha]V[Dap](Glutaryl)C[Dab]-NH2; thioether N-14) — 4.2-fold higher, 0.0034 µM
- CC(C)C[C@H]1NC(=O)[C@H](C)N(C)C(=O)[C@H](Cc2ccc(C(=O)O)cc2)NC(=O)[C@H](Cc2ccc(-c3ccccc3)cc2)NC(=O)[C@H](Cc2ccc(C(=O)O)cc2)NC(=O)[C@H](Cc2cccc(C(F)(F)F)c2)NC(=O)[C@H](CC(=O)O)NC(=O)[C@H](Cc2ccc(C(=O)O)cc2)NC(=O)[C@H](CN2CCOCC2)NC(=O)CSC[C@@H](C(=O)N[C@@H](CCN)C(N)=O)NC(=O)[C@H](CNC(=O)CCC(=O)O)NC(=O)[C@H](C(C)C)NC(=O)[C@H](CC2CCCCC2)NC(=O)[C@H](CCN)NC1=O [Example 5144] ({CH2CO}-[Ala(morpholin-4-yl)][Phe(4-COOH)]D[Phe(3-CF3)][Phe(4-COOH)][Bip][Phe(4-COOH)][NMeA][dL][Dab][Cha]V[Dap](Suc)C[Dab]-NH2; thioether N-14) — 12-fold higher, 0.0097 µM
- Cc1cccc(C[C@@H]2NC(=O)[C@H](CC(=O)O)NC(=O)[C@H](Cc3ccc(OCC(=O)O)cc3)NC(=O)[C@H](Cc3cnc[nH]3)NC(=O)CSC[C@@H](C(=O)N[C@@H](CCN)C(N)=O)NC(=O)[C@H](CCCN)NC(=O)[C@H](C(C)C)NC(=O)[C@H](CC3CCCCC3)NC(=O)[C@H](CCN)NC(=O)[C@@H](CC(C)C)NC(=O)[C@H](C)N(C)C(=O)[C@H](CCC(N)=O)NC(=O)[C@H](Cc3ccc(-c4ccccc4)cc3)NC(=O)[C@H](Cc3ccc(C(=O)O)cc3)NC2=O)c1 [Example 5274] ({CH2CO}-HY(Carboxymethyl)D[Phe(3-Me)][Phe(4-COOH)][Bip]Q[NMeA][dL][Dab][Cha]V[Orn]C[Dab]-NH2; thioether N-14) — 7.5-fold higher, 0.006 µM
- Cc1cccc(C[C@@H]2NC(=O)[C@H](CC(=O)O)NC(=O)[C@H](Cc3ccc(C(=O)O)cc3)NC(=O)[C@H](C)NC(=O)CSC[C@@H](C(=O)N[C@@H](CCN)C(N)=O)NC(=O)[C@H](CC(=O)O)NC(=O)[C@H](C(C)C)NC(=O)[C@H](CC3CCCCC3)NC(=O)[C@H](CCN)NC(=O)[C@@H](CC(C)C)NC(=O)[C@H](C)N(C)C(=O)[C@H](Cc3ccc(C(=O)O)cc3)NC(=O)[C@H](Cc3ccc(-c4ccccc4)cc3)NC(=O)[C@H](Cc3ccc(C(=O)O)cc3)NC2=O)c1 [Example 5135] ({CH2CO}-A[Phe(4-COOH)]D[Phe(3-Me)][Phe(4-COOH)][Bip][Phe(4-COOH)][NMeA][dL][Dab][Cha]VDC[Dab]-NH2; thioether N-14) — 8.5-fold higher, 0.0068 µM
